According to patent US11241031B2, “Rebaudioside A and stevioside with improved solubilities” (SWEET GREEN FIELDS USA, LLC, priority 2014, dated 2022):

Key:
[1] = Taste profiling of sample formulations (Example 4, Test 1 and Test 2); set-up: species or system human; settings: Test 2; added to RA/RB solution
Experimental: The samples in lines 2, 4, and 8 of FIG. 1 (0.0625, 0.25, and 0.5625 20% NaOH added) were prepared by mixing raw materials and then formulated in to solutions.
Mixed product: prepared by simply mixing raw materials according to the ratio of Lot #15-0100.

[2] = Evaluation of other sweeteners and inorganic salts on the taste profile (Example 7); set-up: species or system human; settings: for taste profile results, potassium chloride vs sodium chloride: Test 1, salt as component of the composition
Description: Evaluation of the Effects of Other Sweeteners and Inorganic Salts on the Taste Profile of the Composition
Test 1: Evaluation of Compositions Comprising Sodium Chloride and Potassium Chloride
Test 2: Evaluation of Compositions Comprising Various Sweeteners

[3] = Taste profile (0-5 scale): adding additional steviol glycosides (Example 12); set-up: species or system human; settings: added SG at 1.9 wt %; control without any added SGs
Experimental: To evaluate the effect of adding additional SGs on taste profiles relative to a control sample, raw materials were mixed with pure water as indicated in Table 32 to obtain the aqueous solutions as indicated. Taste profiles were determined as described above in Examples 9 and 10.

[4] = Taste profile (0-5 scale): different salt conditions (Example 11); set-up: species or system human; settings: control as named at the place
Experimental: To evaluate the effect of different salt conditions on the resulting taste profiles relative to a control sample (i.e., 059 containing no salt), raw materials were mixed with pure water as indicated in Tables 28-31 to obtain the aqueous solutions as indicated. Taste profiles were determined as described above in Examples 9 and 10.

[5] = cited from earlier work
[6] = Double-blind Flash sensory analysis of hydrolyzed D-glucose on RA/RB and RA97; set-up: species or system human; scale not given here; settings: about 300 ppm in distilled H2O, A = 9.6 ppm, B = 4.8 ppm reacted glucose
Experimental: Experiment 2: Testing the Sensory Effects of Hydrolyzed D-glucose on RA/RB and RA97
1. To replicate the composition of a dried RA/RB hydrolyte treated with 0.625 mL of reagent, 5 g of RA/RB using a 61:39 ratio of RA97:RB was prepared, making sure to mix the sample thoroughly to ensure homogenization. (3.05 g RA97+1.95 g RB=5 g RA/RB blend). […] HPLC was used to confirm replication.
2. The amount of liquid D-glucose from each vial to be equivalent to 0.96 mg D-glucose from vial A/0.48 mg reacted D-glucose from vial B (representing the reaction product from use of 300 ppm of Stevia reacted with the highest and mid-level amount of 20% NaOH (0.625 mL and 0.3215 mL respectively) would be:
3. The following solution sets were created:
i. 299.04 mg RA/RB blend+668.5µL D-Glucose solution vial A+distilled H2O to a final volume of 1,000 mL (299.04 ppm RA/RB+9.6 ppm reacted glucose).
ii. 299.52 mg RA/RB blend+668.5µL D-Glucose solution vial B+distilled H2O to a final volume of 1,000 mL (299.52 ppm RA/RB+4.8 ppm reacted glucose).
iii. 300 mg RA/RB blend+distilled H2O to a final volume of 1,000 mL (300 ppm RA/RB).
i. 299.04 mg RA97+668.5µL D-Glucose solution vial A+distilled H2O to a final volume of 1,000 mL (299.04 ppm RA97+9.6 ppm reacted glucose).
ii. 299.52 mg RA97+668.5µL D-Glucose solution vial B+distilled H2O to a final volume of 1,000 mL ([…]+4.8 ppm reacted glucose).
iii. 300 mg RA97+distilled H2O to a final volume of 1,000 mL (300 ppm RA97).
Each set was tasted using double-blind Flash sensory analysis (number of analysts=2).

[Cl-].[Na+] [sodium chloride]
effect of added component on the taste profile [1]: improved the “aftertaste” profile | taste profile results, potassium chloride vs sodium chloride [2]: Substantially same results

C=C1C[C@@]23CC[C@H]4[C@@](C)(CCC[C@@]4(C)C(=O)O)[C@@H]2CC[C@]1(O[C@@H]1O[C@H](CO)[C@@H](O)[C@H](O)[C@H]1O[C@@H]1O[C@H](CO)[C@@H](O)[C@H](O)[C@H]1O)C3 [steviolbioside]
taste profile relative to control sample 10-1 [3]: not significantly affected

O=C([O-])[O-].[K+].[K+] [potassium carbonate]
taste profile relative to the control sample [4]: not significantly affected

C=C1C[C@@]23CC[C@H]4[C@@](C)(CCC[C@@]4(C)C(=O)O[C@@H]4O[C@H](CO)[C@@H](O)[C@H](O)[C@H]4O)[C@@H]2CC[C@]1(O[C@@H]1O[C@H](CO)[C@@H](O)[C@H](O)[C@H]1O[C@@H]1O[C@H](CO)[C@@H](O)[C@H](O)[C@H]1O)C3 [stevioside]
taste profile relative to control sample 10-1 [3]: not significantly affected | solubility / dissolution (in words) ([5]; powder in water at 25° C.): very low solubility

O=C[C@H](O)[C@@H](O)[C@H](O)[C@H](O)CO [glucose]
effect of added component on the taste profile [1]: improved the “sugar like” profile

rebaudioside C [Reb-C]
taste profile relative to control sample 10-1 [3]: not significantly affected

C=C1C[C@@]23CC[C@H]4[C@@](C)(CCC[C@@]4(C)C(=O)O[C@@H]4O[C@H](CO)[C@@H](O)[C@H](O)[C@H]4O)[C@@H]2CC[C@]1(O[C@@H]1O[C@H](CO)[C@@H](O)[C@H](O[C@@H]2O[C@H](CO)[C@@H](O)[C@H](O)[C@H]2O)[C@H]1O[C@@H]1O[C@H](CO)[C@@H](O)[C@H](O)[C@H]1O)C3 [RA97, Rebaudioside A]
T#10 Bitter [6]: 2.3 | T#10 Linger [6]: 5 | T#10 Ov. Like [6]: 6 | T#10 Sugar Like Body [6]: 3.2 | T#10 Sweetness [6]: 5.8 | T#11 Bitter [6]: 5 | T#11 Dry [6]: 5.9 | T#11 Linger [6]: 5 | T#11 Ov. Like [6]: 6.5 | T#11 Sugar Like Body [6]: 4.4 | T#11 Sweetness [6]: 6.8 | solubility ([5]; in water at 25° C.): 0.8%

O=S(=O)([O-])[O-].[Mg+2] [magnesium sulfate]
taste profile relative to the control sample [4]: not significantly affected

O=C(CO)[C@@H](O)[C@H](O)[C@H](O)CO [fructose]
effect of sweetener on taste profile relative to glucose ([2]; Test 2, sweetener as component of the composition): slightly lower than glucose

[Cl-].[K+] [potassium chloride]
taste profile results, potassium chloride vs sodium chloride [2]: Substantially same results

[Ca+2].[Cl-].[Cl-] [calcium chloride]
taste profile relative to the control sample [4]: not significantly affected
